Data on 5 compounds can be found in patent publication US20040213771A1, “Targets and screens for agents useful in controlling parasitic nematodes” (priority 2001, published 2004).

In data set [1] the test system is C. elegans wild-type (N2) and nhr-8(ok186) mutant animals. To be noted: for Sensitivity of nhr-8(ok186) mutant animals compared with wild-type (N2), L1 assay: 1% DMSO, 20° C., ~72 hours, FIGS. 13 and 14.
Description: Assays for nematode sensitivity to toxic compounds known to induce mammalian cytochrome P450 expression (β-naphthaflavone, primaquine, and atrazine, available from Sigma) were performed in polystyrene 24-well tissue culture plates (Costar, Corning, N.Y.). Each culture well was filled with 0.8 ml of NGM agar (Lewis, J. A. and J. T. Fleming, Basic culture methods, in Caenorhabditis elegans: Modern Biological Analysis of an Organism, H. F. Epstein and D. C. Shakes, Editors. 1995, Academic Press: San Diego, Calif. pp. 3-29) containing compound additions as indicated. Compound solutions and dilutions were prepared in DMSO, and the appropriate amounts of compound were added to aliquots of molten NGM agar (equilibrated in a 55° C. water bath) prior to pouring the wells. For each compound, assays were performed using a range of final compound concentrations in the agar (0, 2, 5, 10, 20 and 30 ug/ml β-naphthoflavone; 0, 25, 50, 100, 250, and 77 ug/ml atrazine; 0, 20, 40, 60, 80 and 100 ug/ml primaquine). The final concentration of DMSO in the agar was 1% in every case, and controls of no addition and of 1% DMSO were also included in every assay series. Once the agar was solidified, each well was seeded with a lawn of E. coli OP50-1 prior to the addition of nematodes. All assays were performed in duplicate. Two different assay strategies were used to assess compound effects on nematode growth and viability: L1 assay: Synchrono5us nematode cultures of the wild-type strain N2 and of the mutant nhr-8(ok186) were obtained by isolating L1 larvae as described Lewis, J. A. and J. T. Fleming, Basic culture methods, in Caenorhabditis elegans: Modern Biological Analysis of an Organism, H. F. Epstein and D. C. […] The actual number of worms in each well was determined by direct count. […] After incubation at 20° C. for ˜72 hours, larval growth was assessed in each well by counting the number of gravid adults, L4 larvae/non-gravid adults, and larvae younger than the L4 stage. […] This difference was recorded as a “missing” class.
The subject of data set [2] is C. elegans wild type (N2), nhr-8(ok186), pgp-3(pk18) and nhr-8(ok186); pgp-3(pk18) worms. The protocol:
Assays for nematode killing by selected toxins were performed in polystyrene 12-well tissue culture plates from Costar (Corning, N.Y.). Concentrated stock solutions of toxins were purified by filtration through 0.2 μm nitrocellulose filters (Corning, Corning, N.Y.). Because the toxin concentrations were not measured following filtration, the molarities of the solutions are estimates. Concentrated toxin stock solutions were serially diluted with S media (0.1 M NaCl, 0.05M potassium phosphate, 5 μg/ml cholesterol, 0.05 mM disodium EDTA, 0.025 mM FeSO4.7H2O, 0.001 mM MnCl2.4H2O, 0.001 mM ZnSO4.7H2O, 0.0001 mM CuSO4.5H2O, […]) to produce appropriate working solutions. To provide a bacterial food source, a saturated culture of E. coli OP50 [43] grown in LB was pelleted and resuspended in each toxin solution. For each 50 ml of toxin solution, 25 ml of the bacterial culture was pelleted for resuspension. Serial dilutions were made in bulk and aliquoted into individual wells (1 ml per well).
To assess killing by the toxins, single hermaphrodites were allowed to lay eggs in individual wells for a 12 hour interval, then transferred to fresh wells. Hatched larvae in each well were counted 12 hours after removal of the hermaphrodite and observed over the course of seven days for development and survival to adulthood [wild type animals complete postembryonic development within 3 days, 29].

The subject of data set [3] is C. elegans CYP genes (CYP35A1-A5, CYP35B1-B3, CYP35C, CYP31A1, CYP31A3). Kind of data set: Induction of cytochrome P450 gene expression, semi-quantitative RT-PCR. It is filed as in vivo, Caenorhabditis elegans. To be noted: 5 ug/ml beta-naphthaflavone plus 1% DMSO or 1 mM chloroquine; ~72 hours at 20° C.; observed in both N2 and nhr-8(ok186) animals; FIG. 15. The procedure: The plates were incubated at 20° C. for ˜72 hours to allow for nematode growth and exposure to compound. Nematodes were then harvested, washed 3× in M9 to remove residual bacteria, and flash frozen in liquid nitrogen. Total RNA was isolated from the frozen nematodes as described (Sluder, A., S. W. Mathews, D. Hough, V. P. Yin, and C. V. Maina, The nuclear receptor superfamily has undergone extensive proliferation and diversification in nematodes. Genome Research, 1999. 9: 103-120).
The levels of cytochrome P450 mRNA in each RNA prep were assayed by semi-quantitative RT-PCR, using primers for specific cytochrome P450 gene sequences presented in Tables 5 and 6, in which nucleotides at degenerate positions are indicated using (N/N). […] Prior to performing PCR amplification to assess gene expression levels, the number of amplification cycles to be employed with each primer pair was selected to ensure that the amplification reactions remained within the linear reaction range [cycle number was selected as described in Johnstone, I. L. and J. D. Barry, Temporal reiteration of a precise gene expression pattern during nematode development Embo J. 1996, 15: 3633-3639, except that reaction products were analyzed by ethidium bromide-staining rather than Southern blotting]. […]

Data set [4] relates to C. elegans nhr-8(RNAi) worms. As to the kind of experiment: Colchicine toxicity assay after RNA-mediated interference of nhr-8. The data set is classed as in vivo, Caenorhabditis elegans. To be noted: nhr-8(RNAi) vs nhr-8(ok186); percentage surviving to the adult stage; FIG. 7. The protocol: Single RNA strands were produced with the Ambion MEGAscript in vitro transcription kit, using as template a PCR amplicon (produced from cm14e12 using primers EL-15 and T7) that lacked sequences encoding the NHR-8 DNA binding domain. To produce dsRNA, equal amounts of sense and antisense transcription reactions and 3× injection buffer (20 mM KPO4 pH 7.5, 3 mM KCitrate pH 7.5, 2% PEG6000) were combined and incubated on a thermal cycler for strand annealing (95° C., 20 sec.; reduced by 2° C. per 10 sec. cycle for 11 cycles). Both gonad arms of young adult hermaphrodites were injected with the dsRNA [25]. Following a 12 hour purge period to remove embryos unlikely to have received a full dose of dsRNA, the injected hermaphrodites were used in the colchicine toxicity assay described above.

Like-named read-outs stand apart in the source and are kept apart here.

Consider `CCNc1nc(Cl)nc(NC(C)C)n1` [atrazine], for which the “Sensitivity of nhr-8(ok186) mutant animals compared with wild-type (N2), L1 assay” value in data set [1] is “slightly increased sensitivity”.
For `CCN(CC)CCCC(C)Nc1ccnc2cc(Cl)ccc12` (centres unmarked) [chloroquine], in data set [2] (in vivo), the “Toxin sensitivity of nhr-8(ok186) homozygotes compared with wild type animals (percentage surviving to the adult stage)” value is on record as “more sensitive” and the “Toxin sensitivity of nhr-8(ok186); pgp-3(pk18) double mutant animals compared with animals with only a single disrupted gene” value is given as “more sensitive”. Also, in data set [3], the “CYP genes whose expression was induced” value was “CYP35A1, CYP35B1, CYP35B2, and CYP35B3”.
As to `COc1cc2c(c(OC)c1OC)-c1ccc(OC)c(=O)cc1[C@@H](NC(C)=O)CC2` [colchicine], in data set [2] (double mutant vs single mutants, FIG. 6), the “Toxin sensitivity of nhr-8(ok186); pgp-3(pk18) double mutant animals compared with animals with only a single disrupted gene” value is listed as “more sensitive”. Further, the “Toxin sensitivity of nhr-8(ok186) homozygotes compared with wild type animals (percentage surviving to the adult stage)” value in data set [2] (in vivo) is on record as “more sensitive”. In addition, the “Toxin sensitivity of nhr-8(ok186) animals compared with pgp-3 putative null mutants” value in data set [2] (nhr-8(ok186) vs pgp-3(pk18), FIG. 6) was “as sensitive”. In addition, the “Colchicine sensitivity after disruption of nhr-8 function by RNA mediated interference” value in data set [4] was “phenocopies the colchicine sensitivity of the nhr-8(ok186) mutants”.
For `COc1cc(NC(C)CCCN)c2ncccc2c1` (centres unmarked) [primaquine], the “Sensitivity of nhr-8(ok186) mutant animals compared with wild-type (N2), L1 assay” value in data set [1] is “increased sensitivity”.
Regarding `O=c1cc(-c2ccccc2)oc2ccc3ccccc3c12` [β-naphthoflavone], the “CYP genes whose expression was induced” value in data set [3] was “CYP35A3 and CYP35A4”. The “Difference in sensitivity of wild-type (N2) and nhr-8(ok186) mutant animals” value in data set [1] (preliminary experiments, data not shown) was “did not reveal any detectable differences”.
